{"source": "patent US11446287B2", "about": "“Compounds and methods for EP300 or CBP modulation and indications therefor” (Opna Immuno-Oncology SA, priority 2019, dated 2022)", "note": "pIC50: −log10 of the molar value.", "data": [{"target": "T1, Recombinant human CBP containing the bromodomain (CBP-BD (1043-1159)) (Homo sapiens, UniProt Q92793)", "T1 construct": "Recombinant human CBP bromodomain (CBP-BD (1043-1159)); made in house; host or cells: E. coli BL21-CodonPlus (DE3), modified pET vector", "T1 sequence (Q92793 1081-1197)": "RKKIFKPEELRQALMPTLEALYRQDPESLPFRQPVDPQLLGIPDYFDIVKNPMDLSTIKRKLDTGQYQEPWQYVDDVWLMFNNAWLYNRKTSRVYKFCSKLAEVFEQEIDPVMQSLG", "experiment": "CBP Alphascreen binding assay", "details": "read-out: CREBBP (CBP) IC50", "procedure,_shortened": "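Buffer: 50 mM HEPES pH 7.5, 50 mM NaCl, 0.01% BSA, 0.01% Triton X-100, 2 mM DTT. The signal was normalised to plate controls and fitted with a four-parameter curve to give IC50.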", "values": [{"smiles": "CCc1onc(C)c1-c1cnc2c(c1)c(-c1ccc(C(=O)O)cc1OC(F)(F)F)cn2C1CCOCC1", "note": "[P-0401, 4-(5-(5-ethyl-3-methylisoxazol-4-yl)-1-(tetrahydro-2H-pyran-4-yl)-1H-pyrrolo[2,3-b]pyridin-3-yl)-3-(trifluoromethoxy)benzoic acid]", "pIC50": "6.00 to 10.00"}, {"smiles": "Cc1cc(C(=O)O)cc(OC(C)C)c1-c1cn(C2CCOCC2)c2ncc(-c3c(C)noc3C)cc12", "note": "[P-0402, 4-(5-(3,5-dimethylisoxazol-4-yl)-1-(tetrahydro-2H-pyran-4-yl)-1H-pyrrolo[2,3-b]pyridin-3-yl)-3-isopropoxy-5-methylbenzoic acid]", "pIC50": "6.00 to 10.00"}, {"smiles": "Cc1noc(C)c1-c1cnc2c(c1)c(-c1ccc(C(=O)O)cc1OC(C)C)cn2C1(C)CCOCC1", "note": "[P-0403, 4-(5-(3,5-dimethylisoxazol-4-yl)-1-(4-methyltetrahydro-2H-pyran-4-yl)-1H-pyrrolo[2,3-b]pyridin-3-yl)-3-isopropoxybenzoic acid]", "pIC50": "6.00 to 10.00"}, {"smiles": "Cc1noc(C)c1-c1cnc2c(c1)c(-c1c(Cl)cc(C(=O)O)cc1OC(C)C)cn2C1(C)CCOCC1", "note": "[P-0404, 3-chloro-4-(5-(3,5-dimethylisoxazol-4-yl)-1-(4-methyltetrahydro-2H-pyran-4-yl)-1H-pyrrolo[2,3-b]pyridin-3-yl)-5-isopropoxybenzoic acid]", "pIC50": "6.00 to 10.00"}, {"smiles": "CCOc1nc(C(=O)O)ccc1-c1cn(C2(C)CCOCC2)c2ncc(-c3c(C)noc3C)cc12", "note": "[P-0405, 5-(5-(3,5-dimethylisoxazol-4-yl)-1-(4-methyltetrahydro-2H-pyran-4-yl)-1H-pyrrolo[2,3-b]pyridin-3-yl)-6-ethoxypicolinic acid]", "pIC50": "6.00 to 10.00"}, {"smiles": "CCOc1nc(C(=O)O)c(Cl)cc1-c1cn([C@H]2CCOC2)c2ncc(-c3c(C)noc3C)cc12", "note": "[P-0406, (S)-3-chloro-5-(5-(3,5-dimethylisoxazol-4-yl)-1-(tetrahydrofuran-3-yl)-1H-pyrrolo[2,3-b]pyridin-3-yl)-6-ethoxypicolinic acid]", "pIC50": "6.00 to 10.00"}, {"smiles": "Cc1noc(C)c1-c1cnc2c(c1)c(-c1ccc(C(=O)O)cc1OC(C)C)cn2C1(C)CCOC1", "note": "(stereo not shown) [P-0407, 4-(5-(3,5-dimethylisoxazol-4-yl)-1-(3-methyltetrahydrofuran-3-yl)-1H-pyrrolo[2,3-b]pyridin-3-yl)-3-isopropoxybenzoic acid]", "pIC50": "6.00 to 10.00"}, {"smiles": "Cc1noc(C)c1-c1cnc2c(c1)c(-c1c(Cl)cc(C(=O)O)cc1OC(C)C)cn2C1(C)CCOC1", "note": "(stereo not shown) [P-0408, 3-chloro-4-(5-(3,5-dimethylisoxazol-4-yl)-1-(3-methyltetrahydrofuran-3-yl)-1H-pyrrolo[2,3-b]pyridin-3-yl)-5-isopropoxybenzoic acid]", "pIC50": "6.00 to 10.00"}, {"smiles": "Cc1noc(C)c1-c1cnc2c(c1)c(-c1c(Cl)cc(C(=O)O)cc1OC1CC1)cn2-c1ncccc1C#N", "note": "[P-0409, 3-chloro-4-(1-(3-cyanopyridin-2-yl)-5-(3,5-dimethylisoxazol-4-yl)-1H-pyrrolo[2,3-b]pyridin-3-yl)-5-cyclopropoxybenzoic acid]", "pIC50": "6.00 to 10.00"}, {"smiles": "Cc1noc(C)c1-c1cnc2c(c1)c(-c1c(F)cc(C(=O)O)cc1OC1CCC1)cn2C1CCOCC1", "note": "[P-0410, 3-cyclobutoxy-4-(5-(3,5-dimethylisoxazol-4-yl)-1-(tetrahydro-2H-pyran-4-yl)-1H-pyrrolo[2,3-b]pyridin-3-yl)-5-fluorobenzoic acid]", "pIC50": "6.00 to 10.00"}, {"smiles": "CCOc1nc(C(=O)O)cc(C)c1-c1cn(C2CCOCC2)c2ncc(-c3c(C)noc3C)cc12", "note": "[P-0411, 5-(5-(3,5-dimethylisoxazol-4-yl)-1-(tetrahydro-2H-pyran-4-yl)-1H-pyrrolo[2,3-b]pyridin-3-yl)-6-ethoxy-4-methylpicolinic acid]", "pIC50": "6.00 to 10.00"}, {"smiles": "CCOc1nc(C(=O)O)cc(C)c1-c1cn(-c2ccc(F)cc2F)c2ncc(-c3c(C)noc3C)cc12", "note": "[P-0412, 5-(1-(2,4-difluorophenyl)-5-(3,5-dimethylisoxazol-4-yl)-1H-pyrrolo[2,3-b]pyridin-3-yl)-6-ethoxy-4-methylpicolinic acid]", "pIC50": "6.00 to 10.00"}, {"smiles": "Cc1nnn(C)c1-c1cnc2c(c1)c(-c1ccc(C(=O)O)cc1OC1CC1)cn2C1CCOCC1", "note": "[P-0413, 3-cyclopropoxy-4-(5-(1,4-dimethyl-1H-1,2,3-triazol-5-yl)-1-(tetrahydro-2H-pyran-4-yl)-1H-pyrrolo[2,3-b]pyridin-3-yl)benzoic acid]", "pIC50": "6.00 to 10.00"}, {"smiles": "CCOc1cc(C(=O)O)nc(OCC)c1-c1cn(-c2ccccc2F)c2ncc(-c3c(C)noc3C)cc12", "note": "[P-0414, 5-(5-(3,5-dimethylisoxazol-4-yl)-1-(2-fluorophenyl)-1H-pyrrolo[2,3-b]pyridin-3-yl)-4,6-diethoxypicolinic acid]", "pIC50": "6.00 to 10.00"}, {"smiles": "CCOc1cc(C(=O)O)nc(OCC)c1-c1cn([C@@H](C)c2ccccn2)c2ncc(-c3c(C)noc3C)cc12", "note": "[P-0415, (S)-5-(5-(3,5-dimethylisoxazol-4-yl)-1-(1-(pyridin-2-yl)ethyl)-1H-pyrrolo[2,3-b]pyridin-3-yl)-4,6-diethoxypicolinic acid]", "pIC50": "6.00 to 10.00"}, {"smiles": "CCOc1nc(C(=O)O)c(C)cc1-c1cn(C(C2CC2)C2CC2)c2ncc(-c3c(C)noc3C)cc12", "note": "[P-0416, 5-(1-(dicyclopropylmethyl)-5-(3,5-dimethylisoxazol-4-yl)-1H-pyrrolo[2,3-b]pyridin-3-yl)-6-ethoxy-3-methylpicolinic acid]", "pIC50": "6.00 to 10.00"}, {"smiles": "CCOc1nc(C(=O)O)cc(C)c1-c1cn(C(C2CC2)C2CC2)c2ncc(-c3c(C)noc3C)cc12", "note": "[P-0417, 5-(1-(dicyclopropylmethyl)-5-(3,5-dimethylisoxazol-4-yl)-1H-pyrrolo[2,3-b]pyridin-3-yl)-6-ethoxy-4-methylpicolinic acid]", "pIC50": "6.00 to 10.00"}, {"smiles": "Cc1noc(C)c1-c1cnc2c(c1)c(-c1ccnc(C(=O)O)c1C)cn2C(C1CC1)C1CC1", "note": "[P-0418, 4-(1-(dicyclopropylmethyl)-5-(3,5-dimethylisoxazol-4-yl)-1H-pyrrolo[2,3-b]pyridin-3-yl)-3-methylpicolinic acid]", "pIC50": "6.00 to 10.00"}, {"smiles": "Cc1noc(C)c1-c1cnc2c(c1)c(-c1ccnc(C(=O)O)c1C)cn2C1CCOCC1", "note": "[P-0419, 4-(5-(3,5-dimethylisoxazol-4-yl)-1-(tetrahydro-2H-pyran-4-yl)-1H-pyrrolo[2,3-b]pyridin-3-yl)-3-methylpicolinic acid]", "pIC50": "6.00 to 10.00"}, {"smiles": "CCOc1cc(C(=O)O)nc(OCC)c1-c1cn(C(C2CC2)C2CC2)c2ncc(-c3c(C)noc3C)cc12", "note": "[P-0420, 5-(1-(dicyclopropylmethyl)-5-(3,5-dimethylisoxazol-4-yl)-1H-pyrrolo[2,3-b]pyridin-3-yl)-4,6-diethoxypicolinic acid]", "pIC50": "6.00 to 10.00"}, {"smiles": "CCOc1cc(C(=O)O)nc(OCC)c1-c1cn(-c2ncccc2C#N)c2ncc(-c3c(C)noc3C)cc12", "note": "[P-0421, 5-(1-(3-cyanopyridin-2-yl)-5-(3,5-dimethylisoxazol-4-yl)-1H-pyrrolo[2,3-b]pyridin-3-yl)-4,6-diethoxypicolinic acid]", "pIC50": "6.00 to 10.00"}, {"smiles": "CCOc1cc(C(=O)O)nc(OCC)c1-c1cn(-c2ncccc2C(N)=O)c2ncc(-c3c(C)noc3C)cc12", "note": "[P-0422, 5-(1-(3-carbamoylpyridin-2-yl)-5-(3,5-dimethylisoxazol-4-yl)-1H-pyrrolo[2,3-b]pyridin-3-yl)-4,6-diethoxypicolinic acid]", "pIC50": "6.00 to 10.00"}, {"smiles": "CCOc1cc(C(=O)O)nc(OCC)c1-c1cn(-c2ccc(C#N)cc2F)c2ncc(-c3c(C)noc3C)cc12", "note": "[P-0423, 5-(1-(4-cyano-2-fluorophenyl)-5-(3,5-dimethylisoxazol-4-yl)-1H-pyrrolo[2,3-b]pyridin-3-yl)-4,6-diethoxypicolinic acid]", "pIC50": "6.00 to 10.00"}, {"smiles": "CCOc1cc(C(=O)O)nc(OCC)c1-c1cn(-c2cnc(C3CC3)nc2)c2ncc(-c3c(C)noc3C)cc12", "note": "[P-0424, 5-(1-(2-cyclopropylpyrimidin-5-yl)-5-(3,5-dimethylisoxazol-4-yl)-1H-pyrrolo[2,3-b]pyridin-3-yl)-4,6-diethoxypicolinic acid]", "pIC50": "6.00 to 10.00"}, {"smiles": "CCOc1cc(C(=O)O)nc(OCC)c1-c1cn(C2CCC(F)(F)CC2)c2ncc(-c3c(C)noc3C)cc12", "note": "[P-0425, 5-(1-(4,4-difluorocyclohexyl)-5-(3,5-dimethylisoxazol-4-yl)-1H-pyrrolo[2,3-b]pyridin-3-yl)-4,6-diethoxypicolinic acid]", "pIC50": "6.00 to 10.00"}, {"smiles": "CCOc1cc(C(=O)O)ncc1-c1cn(C(C2CC2)C2CC2)c2ncc(-c3c(C)noc3C)cc12", "note": "[P-0427, 5-(1-(dicyclopropylmethyl)-5-(3,5-dimethylisoxazol-4-yl)-1H-pyrrolo[2,3-b]pyridin-3-yl)-4-ethoxypicolinic acid]", "pIC50": "6.00 to 10.00"}, {"smiles": "CCOc1cc(C(=O)O)ncc1-c1cn(C2CCOCC2)c2ncc(-c3c(C)noc3C)cc12", "note": "[P-0428, 5-(5-(3,5-dimethylisoxazol-4-yl)-1-(tetrahydro-2H-pyran-4-yl)-1H-pyrrolo[2,3-b]pyridin-3-yl)-4-ethoxypicolinic acid]", "pIC50": "6.00 to 10.00"}, {"smiles": "CCOc1cc(C(=O)O)nc(OCC)c1-c1cn(-c2cn(C(F)F)nc2C)c2ncc(-c3c(C)noc3C)cc12", "note": "[P-0429, 5-(1-(1-(difluoromethyl)-3-methyl-1H-pyrazol-4-yl)-5-(3,5-dimethylisoxazol-4-yl)-1H-pyrrolo[2,3-b]pyridin-3-yl)-4,6-diethoxypicolinic acid]", "pIC50": "6.00 to 10.00"}, {"smiles": "CCOc1cc(C(=O)O)nc(OCC)c1-c1cn(-c2cn(CC)nc2C)c2ncc(-c3c(C)noc3C)cc12", "note": "[P-0430, 5-(5-(3,5-dimethylisoxazol-4-yl)-1-(1-ethyl-3-methyl-1H-pyrazol-4-yl)-1H-pyrrolo[2,3-b]pyridin-3-yl)-4,6-diethoxypicolinic acid]", "pIC50": "6.00 to 10.00"}, {"smiles": "CCOc1cc(C(=O)O)nc(OCC)c1-n1cc(-c2ccc(F)cc2F)c2ncc(-c3c(C)noc3C)cc21", "note": "[P-0431, 5-(3-(2,4-difluorophenyl)-6-(3,5-dimethylisoxazol-4-yl)-1H-pyrrolo[3,2-b]pyridin-1-yl)-4,6-diethoxypicolinic acid]", "pIC50": "6.00 to 10.00"}, {"smiles": "CCOc1cc(C(=O)OC)nc(OCC)c1-c1cn(-c2ccc(F)cc2F)c2ncc(-c3c(C)noc3C)cc12", "note": "[P-0432, methyl 5-(1-(2,4-difluorophenyl)-5-(3,5-dimethylisoxazol-4-yl)-1H-pyrrolo[2,3-b]pyridin-3-yl)-4,6-diethoxypicolinate]", "pIC50": "6.00 to 10.00"}]}]}
